Test [1] has as its system Aβ production in HEK cells over-expressing Wild type β-APP. Description: Aβ production inhibition, sandwich-ELISA in HEK cells which over-express Wild type β-APP (SE-WT). The format is cell-based, human. The note with it: Homo sapiens; for IC50: HEK293, based on the respective plateau of maximum inhibition; for Emax: HEK293, maximum inhibition plateau, read-out: SE-WT max. inhibition %. As for the experimental part: (§1) The effect of test substances on the inhibition of Aβ-amyloid production can be measured in the supernatant of cell cultures of β-APP expressed cells using ELISA tests or other quantitative determination methods for β-APP degradation products. Typically, 8×10^5 cells (e.g. HEK cells, which express recombinant human β-APP variants) are plated out in each well of a culture dish having 24 wells in growth media such as e.g. OPTIMEM (Gibco) and the test compound is then added. After an incubation period of 24 to 48 hours at 37° C. in a 10% CO2 atmosphere the supernatant is removed from the cell cultures and the β-APP degradation products (e.g. Aβ or β-[…]) are determined with the aid of ELISA (or sandwich ELISA) analysis or by means of quantitative immunoprecipitation (after metabolic radiolabelling of the cell proteins). Typically, 300 μl of the cell supernatant are tested according to the state of the art for ELISA tests in culture dishes having 96 wells. In the case of sandwich ELISA for Aβ, the binding antibody can be directed against the first 16 amino acids of Aβ-peptide (e.g. 6E10 Senetek, Maryland Heights, Mo.) and the detection antibody can be directed against amino acids 17-40 or 17-42 of Aβ and carries a detection system such as e.g. peroxidase. A simple ELISA test with an antibody, e.g. 22C11 (Boehringer Mannheim), can be used as the test for […]; the second antibody can be an anti-(mouse) Ig having a detection system, such as e.g. peroxidase. The peroxidase reaction can be carried out e.g. using a TMB substrate (BioRAD) and the measurements can be carried out at 650 nm using an ELISA reading apparatus. […] SE-SFAD signifies the Aβ production inhibition measured using sandwich-ELISA in HEK cells, SFAD signifies over-expressed mutated β-APP, and SE-WT signifies the Aβ production inhibition measured using sandwich-ELISA in HEK cells which over-express Wild type β-APP. The IC50 values are based on the respective plateau of maximum inhibition.
A general note: An ELISA detects its analyte on a solid surface through an enzyme-linked reagent.

Test [2] has as its system Aβ production in HEK cells over-expressing mutated β-APP (SFAD). Kind of test: Aβ production inhibition, sandwich-ELISA in HEK cells, over-expressed mutated β-APP (SE-SFAD). It counts as cell-based, human. The settings on record: Homo sapiens, HEK293, HEK cells; for IC50: based on the respective plateau of maximum inhibition; for Emax: maximum inhibition plateau, read-out: SE-SFAD max. inhibition %. As for the experimental part: as §1

Our source for the IC50 and Emax values is patent US5869500A, “Pyridone compounds useful in treating Alzheimer's disease” (Hoffmann-La Roche Inc., priority 1996, dated 1999).

On to `COCCN(CCOC)C(=O)c1cc(-c2ccc(C(C)(C)C)cc2)c(=O)n2ccc3ccsc3c12` [Compound 109, 8-(4-tert-Butyl-phenyl)-7-oxo-7H-thieno[2,3-a]quinolizine-10-carboxylicacid bis-(2-methoxy-ethyl)-amide], for which, in test [1], the half-inhibitory concentration (IC50) was 0.8 µM and the Emax came out at 100%. Also, in test [2], half-maximal inhibition (IC50) required 7.7 µM and the Emax is 100%.

With `COC[C@@H]1CCCN1C(=O)c1cc(-c2ccccc2)c(=O)n2ccc3ccsc3c12` [Compound 34, 10-(2-(S)-Methoxymethyl-pyrrolidine-1-carbonyl)-8-phenyl-thieno-[2,3-a]-quinolizin-7-one], in test [1], the concentration for half-maximal inhibition (IC50) was found to be 4 µM and the Emax stood at 60%. In addition, in test [2], the IC50 turned out to be 9 µM and the Emax came out at 50%.

Take `COC[C@H]1CCCN1C(=O)c1cc(-c2ccccc2)c(=O)n2ccc3ccsc3c12` [Compound 35, 10-(2-(R)-Methoxymethyl-pyrrolidine-1-carbonyl)-8-phenyl-thieno-[2,3-a]quinolizin-7-one]: the half-maximal inhibitory concentration (IC50) was determined as 3 µM in test [1] and 6 µM in test [2]. Besides, the Emax in test [1] amounted to 65%; in test [2], 50%.

For the compound `CC(C)N(CC#CCOC(=O)c1cc(-c2ccccc2)c(=O)n2ccc3ccsc3c12)C(C)C` [Compound 48, 4-Diisopropylamino-but-2-ynyl 7-oxo-8-phenyl-7H-thieno[2,3-a]-quinolizine-10-carboxylate methanesulphonate], the half-maximal inhibitory concentration (IC50) in test [1] amounted to 3.3 µM; in test [2], 12 µM. Moreover, the Emax in test [1] and in test [2] was 100% in each case.

For the compound `CCN(CCOC)C(=O)c1cc(-c2ccccc2)c(=O)n2ccc3ccc(Cl)cc3c12` [Compound 42, 10-Chloro-4-oxo-3-phenyl-4H-pyrido[2,1-a]isoquinoline-1-carboxylic acid ethyl-(2-methoxy-ethyl)-amide], in test [1], the half-maximal inhibitory concentration (IC50) is 0.9 µM and the Emax was 100%. Also, in test [2], the IC50 is 3 µM and the Emax was 100%.

As for `COCCN(CCOC)C(=O)c1cc(-c2ccc(OCc3ccccc3)cc2)c(=O)n2ccc3ccsc3c12` [Compound 67, 8-(4-Benzyloxy-phenyl)-7-oxo-7H-thieno[2,3-a]quinolizine-10-carboxylic acid bis-(2-methoxy-ethyl)-amide], in test [1], 0.6 µM corresponded to half-maximal inhibition (IC50) and the Emax is 80%. Also, in test [2], the half-maximal inhibitory concentration (IC50) was 0.8 µM and the Emax was found to be 70%.

In the case of `CN(CC1CCCO1)C(=O)c1cc(-c2ccccc2)c(=O)n2ccc3ccsc3c12` (stereo not drawn) [Compound 24, 7-Oxo-8-phenyl-7H-thieno[2,3-a]quinolizine-10-carboxylic acid methyl-(tetrahydrofuran-2-yl-methyl)-amide], in test [1], half-maximal inhibition (IC50) was put at 10 µM and the Emax was 60%. In test [2], the concentration for half-maximal inhibition (IC50) is 7 µM and the Emax is 40%.

With `O=C(OCc1ccccn1)c1cc(-c2ccccc2)c(=O)n2ccc3ccsc3c12` [Compound 6, Pyridin-2-yl-methyl 7-oxo-8-phenyl-7H-thieno[2,3-a]quinolizine-10-carboxylate], in test [1], it took 0.6 µM to reach half-maximal inhibition (IC50) and the Emax came to 75%. Moreover, in test [2], the half-inhibitory concentration (IC50) was 3 µM and the Emax worked out at 50%.

As to `COCC1CCCCN1C(=O)c1cc(-c2ccccc2)c(=O)n2ccc3ccsc3c12` (stereo not drawn) [Compound 50, 10-(2-Methoxymethyl-piperidine-1-carbonyl)-8-phenyl-thieno[2,3-a]-quinolizin-7-one], the half-maximal inhibitory concentration (IC50) in test [1] is 3.6 µM; in test [2] it was 5.5 µM. Also, the Emax in test [1] and in test [2] was 40% each time.

On to `COCCN(C)C(=O)c1cc(-c2ccccc2)c(=O)n2ccc3ccsc3c12` [Compound 19, 7-Oxo-8-phenyl-7H-thieno[2,3-a]quinolizine-10-carboxylic acid (2-methoxy-ethyl)-methyl-amide], for which, in test [1], the IC50 stood at 20 µM and the Emax is 100%.

In the case of `COCCN(CC1CC1)C(=O)c1cc(-c2ccccc2OC)c(=O)n2ccc3ccsc3c12` [Compound 119, 8-(2-Methoxy-phenyl)-7-oxo-7H-thieno[2,3-a]quinolizine-10-carboxylic acid cyclopropylmethyl-(2-methoxy-ethyl)-amide], in test [2], the concentration for half-maximal inhibition (IC50) turned out to be 1.6 µM and the Emax lay in the range of 60 to 80%.

`O=C(O[C@@H]1CN(C(=O)OCc2ccccc2)C[C@@H]1O)c1cc(-c2ccccc2)c(=O)n2ccc3ccsc3c12` (racemic) [Compound 57, (3RS,4SR)-1-Benzyloxy-carbonyl-4-hydroxy-pyrrolidin-3-yl 7-oxo-8-phenyl-7H-thieno[2,3-a]quinolizine-10-carboxylate]: in test [2], the midpoint of inhibition, the IC50, lay at 0.5 µM and the Emax is 35%.

`COCCN(Cc1cccs1)C(=O)c1cc(-c2ccccc2OC)c(=O)n2ccc3ccsc3c12` [Compound 140, 8-(2-Methoxy-phenyl)-7-oxo-7H-thieno[2,3-a]quinolizine-10-carboxylic acid (2-methoxy-ethyl)-thiophen-2-yl-methyl-amide]: in test [2], the concentration for half-maximal inhibition (IC50) worked out at 2.5 µM and the Emax lay within 30 to 100%.

Consider `COCCN(CCOC)C(=O)c1cc(-c2ccc(Oc3ccccc3)cc2)c(=O)n2ccc3ccsc3c12` [Compound 97, 7-Oxo-8-(4-phenoxy-phenyl)-7H-thieno[2,3-a]quinolizine-10-carboxylic acid bis-(2-methoxy-ethyl)-amide], for which, in test [2], the IC50 was 2.2 µM and the Emax came to 100%.

Take `COC(=O)c1cc(-c2ccc(Oc3ccccc3)cc2)c(=O)n2ccc3ccsc3c12` [Compound 96, Methyl 7-oxo-8-(4-phenoxy-phenyl)-7H-thieno[2,3-a]quinolizine-10-carboxylate]: in test [2], the IC50 amounted to 1 µM and the Emax came to 40%.

Consider `COCCN(C(=O)c1cc(-c2ccc(C(C)(C)C)cc2)c(=O)n2ccc3ccsc3c12)c1ccccc1` [Compound 111, 8-(4-tert-Butyl-phenyl)-7-oxo-7H-thieno[2,3-a]quinolizine-10-carboxylicacid (2-methoxy-ethyl)-phenyl-amide], for which, in test [2], the IC50 was 2.5 µM and the Emax came out at 100%.

Turning to `COCCN(Cc1ccccc1)C(=O)c1cc(-c2ccc(OCc3ccccc3)cc2)c(=O)n2ccc3ccsc3c12` [Compound 71, 8-(4-Benzyloxy-phenyl)-7-oxo-7H-thieno[2,3-a]quinolizine-10-carboxylic acid benzyl-(2-methoxy-ethyl)-amide], in test [2], 0.57 µM corresponded to half-maximal inhibition (IC50) and the Emax was 100%.

In the case of `COCCN(Cc1ccccc1)C(=O)c1cc(-c2ccccc2OC)c(=O)n2ccc3ccsc3c12` [Compound 120, 8-(2-Methoxy-phenyl)-7-oxo-7H-thieno[2,3-a]quinolizine-10-carboxylic acid benzyl-(2-methoxy-ethyl)-amide], in test [2], half-maximal inhibition (IC50) was put at 1.8 µM and the Emax turned out to be 100%.

Regarding `CCN(CCOC)C(=O)c1cc(-c2ccc(-c3ccccc3)cc2)c(=O)n2ccc3ccsc3c12` [Compound 93, 8-(Biphenyl-4-yl)-7-oxo-7H-thieno[2,3-a]quinolizine-10-carboxylic acid ethyl-(2-methoxy-ethyl)-amide], in test [2], the half-inhibitory concentration (IC50) came to 4.2 µM and the Emax worked out at 100%.

For the compound `CC(=O)OC[C@H]1CCCN1C(=O)c1cc(-c2ccccc2)c(=O)n2ccc3ccsc3c12` [Compound 12, 1-(7-Oxo-8-phenyl-7H-thieno[2,3-a]quinolizine-10-carbonyl)-pyrrolidin-2-(R)-yl-methyl acetate], in test [1], 1 µM corresponded to half-maximal inhibition (IC50) and the Emax was determined as 50%.

Consider `COc1cccc(-c2cc(C(=O)Nc3ccncc3)c3c4sccc4ccn3c2=O)c1` [Compound 124, 8-(3-Methoxy-phenyl)-7-oxo-7H-thieno[2,3-a]quinolizine-10-carboxylic acid pyridin-4yl-amide], for which, in test [2], the half-inhibitory concentration (IC50) came out at 0.8 µM and the Emax amounted to 35%.

Turning to `CCN(CCO)C(=O)c1cc(-c2ccccc2)c(=O)n2ccc3ccsc3c12` [Compound 21, 7-Oxo-8-phenyl-7H-thieno[2,3-a]quinolizine-10-carboxylic acid (2-hydroxy-ethyl)-ethyl-amide], in test [1], the half-inhibitory concentration (IC50) came out at 40 µM and the Emax was 100%.

Consider `O=C(c1cc(-c2ccccc2)c(=O)n2ccc3ccsc3c12)N1CCC[C@@H]1CI` [Compound 11, 10-(2-(R)-Iodomethyl-pyrrolidine-1-carbonyl)-8-phenyl-thieno[2,3-a]-quinolizin-7-one], for which, in test [1], the midpoint of inhibition, the IC50, lay at 11 µM and the Emax stood at 100%.

Regarding `COCCN(CCOC)C(=O)c1cc(-c2ccc(C)cc2)c(=O)n2ccc3ccsc3c12` [Compound 150, 7--Oxo-8-p-tolyl-7H-thieno[2,3-a]quinolizine-10-carboxylic acid bis-(2-methoxy-ethyl)-amide], in test [2], the IC50 was 2.7 µM and the Emax was determined as 100%.

The term IC50 denotes the point on the concentration scale where inhibition reaches its midpoint. A higher IC50 goes with lower potency.
